# Measurements as given in US20100121049A1, “INDENOISOQUINOLINONE ANALOGS AND METHODS OF USE THEREOF” (INOTEK PHARMACEUTICALS CORPORATION, priority 2007, published 2010).
# Where a name gives a salt, the structure may show the parent alone.
# Target: T1, PARP (Mus musculus, UniProt P11103)
# T1 construct: PARP Activity in Cultured Macrophages, Using a Whole-Cell Based Assay; host or cells: murine RAW macrophages
# Assay: PARP activity in cultured macrophages, whole-cell based assay (3H-NAD+ incorporation after hydrogen peroxide)
# Conditions: murine RAW macrophages; compound 1 hour prior to hydrogen peroxide (0.5 mM) for 25 minutes; PARP activity by 3H-NAD+
# Description: Effect of Indenoisoquinolinone Analogs on PARP Activity in Cultured Macrophages, Using a Whole-Cell Based Assay
# The murine RAW macrophages (ATCC, American Type Culture Collection, Manassas, Va.) were grown in RPMI […] (Invitrogen Life Technologies; Carlsbad, Calif.) medium supplemented with 10% heat-inactivated FBS, 2 mM L-glutamine, and 100 U/ml of penicillin and streptomycin. Cells, between passages 5 and 15, were seeded at a density of 250,000 cells/well in 12 well plates and allowed to grow 48 hours before use. Growth medium was changed on the day of use. Cells were treated with an Indenoisoquinolinone Analog diluted in a growth medium supplemented with 10% fetal bovine serum (FBS) for 1 hour prior to the addition of hydrogen peroxide (0.5 mM) for a further 25 minutes. For the measurement of PARP activity, media was removed and replaced with 0.5 ml of the assay buffer (56 mM HEPES-pH 7.5, 28 mM KCl, 28 mM NaCl, 2 mM MgCl2, 0.01% digitonin, and 0.5 μCi/m1 of ^3H-NAD^+) for 20 minutes. After aspirating the assay buffer, cells were lysed and transferred to eppendorf tubes containing 250 μl of 50% ice-cold trichloroacetic acid (TCA), which were then placed at 4° C. for 4 hours. Samples were centrifuged at 10,000 g for 10 minutes and supernatant removed. The pellets were washed twice with 500 μl of ice-cold 5% w/v TCA. The pellets were then solubilized in 250 μl of NaOH (0.1 M) containing 2% SDS overnight at 37° C. and the PARP activity was then determined by measuring the radioactivity incorporated using a Wallac scintillation counter. The solubilized protein (250 μl) was mixed with 5 ml of scintillation fluid (ScintiSafe Plus, Fisher Scientific) before being counted for 3 minutes. EC50 values were determined from a dose-response curve.
# T1 sequence (P11103 whole entry): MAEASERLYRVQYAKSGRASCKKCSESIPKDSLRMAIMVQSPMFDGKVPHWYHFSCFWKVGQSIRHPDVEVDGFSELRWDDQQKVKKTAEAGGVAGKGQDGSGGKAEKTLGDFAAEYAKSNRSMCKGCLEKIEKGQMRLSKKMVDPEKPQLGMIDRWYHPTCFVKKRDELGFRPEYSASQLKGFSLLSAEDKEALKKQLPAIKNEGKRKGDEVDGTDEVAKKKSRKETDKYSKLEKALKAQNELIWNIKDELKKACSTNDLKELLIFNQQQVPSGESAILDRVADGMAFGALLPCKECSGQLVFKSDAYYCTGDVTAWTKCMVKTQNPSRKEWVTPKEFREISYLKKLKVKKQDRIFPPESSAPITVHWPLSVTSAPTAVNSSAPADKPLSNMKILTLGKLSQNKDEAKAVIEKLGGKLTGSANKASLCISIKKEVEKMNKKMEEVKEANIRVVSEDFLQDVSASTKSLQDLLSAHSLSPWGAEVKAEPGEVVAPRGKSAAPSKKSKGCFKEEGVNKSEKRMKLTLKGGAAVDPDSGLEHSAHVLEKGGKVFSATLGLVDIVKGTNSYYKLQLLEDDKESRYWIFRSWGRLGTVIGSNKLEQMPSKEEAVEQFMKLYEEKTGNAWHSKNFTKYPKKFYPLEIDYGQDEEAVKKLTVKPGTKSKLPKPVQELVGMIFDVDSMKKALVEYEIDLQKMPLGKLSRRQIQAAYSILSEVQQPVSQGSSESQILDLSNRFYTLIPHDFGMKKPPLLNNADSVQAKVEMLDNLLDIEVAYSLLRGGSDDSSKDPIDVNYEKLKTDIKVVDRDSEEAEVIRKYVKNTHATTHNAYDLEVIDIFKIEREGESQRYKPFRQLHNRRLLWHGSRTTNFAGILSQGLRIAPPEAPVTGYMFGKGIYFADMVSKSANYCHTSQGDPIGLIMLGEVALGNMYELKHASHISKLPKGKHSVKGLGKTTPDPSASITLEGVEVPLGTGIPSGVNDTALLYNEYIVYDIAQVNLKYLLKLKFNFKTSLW
row,EC50 [nM],SMILES
1,10,"O=c1[nH]c2c(c3ccccc13)Cc1cc(CN3CCN(CC4CC4)CC3)ccc1-2 [Dihydrochloride salt of IIIb-3, 9-[1-(4-Cyclopropylmethylpiperazino)methyl]-5,6-dihydro-5-oxo-11-H-indeno[1,2-c]isoquinoline dihydrochloride]"
2,20,"O=c1[nH]c2c(c3ccccc13)Cc1cc(CN3CCN(C4CCCCC4)CC3)ccc1-2 [Dihydrochloride salt of IIIb-14, 9-[1-(4-Cyclohexylpiperazino)methyl]-5,6-dihydro-5-oxo-11-H-indeno[1,2-c]isoquinoline dihydrochloride]"
3,45,"CC(C)N1CCN(Cc2cccc3c2Cc2c-3[nH]c(=O)c3ccccc23)CC1 [IIIa-1, 10-[1-(4-iso-Propylpiperazino)methyl]-5,6-dihydro-5-oxo-11-H-indeno[1,2-c]isoquinoline]"
4,25,"CCCCN1CCN(Cc2cccc3c2Cc2c-3[nH]c(=O)c3ccccc23)CC1 [IIIa-2, 10-[1-(4-Butylpiperazino)methyl]-5,6-dihydro-5-oxo-11-H-indeno[1,2-c]isoquinoline]"
5,20,"O=c1[nH]c2c(c3ccccc13)Cc1c(CN3CCN(CC4CC4)CC3)cccc1-2 [IIIa-3, 10-[1-(4-Cyclopropylmethylpiperazino)methyl]-5,6-dihydro-5-oxo-11-H-indeno[1,2-c]isoquinoline]"
6,15,"O=c1[nH]c2c(c3ccccc13)Cc1c(CNCCCO)cccc1-2 [IIIa-4, 10-[N-1-(3-Hydroxypropyl)aminomethyl]-5,6-dihydro-5-oxo-11-H-indeno[1,2-c]isoquinoline]"
7,40,"O=c1[nH]c2c(c3ccccc13)Cc1c(CNCCN3CCCC3)cccc1-2 [IIIa-5, 10-[N-(2-Pyrollidinoethyl)aminomethyl}-5,6-dihydro-5-oxo-11-H-indeno[1,2-c]isoquinoline]"
8,75,"O=c1[nH]c2c(c3ccccc13)Cc1c(CN3CCN(c4ncccn4)CC3)cccc1-2 [IIIa-8, 10-{1-[4-(2-Pyrimidyl)piperazino]methyl}-5,6-dihydro-5-oxo-11-H-indeno[1,2-c]isoquinoline]"
9,12,"O=c1[nH]c2c(c3ccccc13)Cc1c(CN3CC[C@H](F)C3)cccc1-2 [IIIa-11, 10-[S-(3-Fluoropyrrolidino)methyl]-5,6-dihydro-5-oxo-11-H-indeno[1,2-c]isoquinoline]"
10,7,"O=c1[nH]c2c(c3ccccc13)Cc1c(CN3CC=CCC3)cccc1-2 [IIIa-12, 10-[(3,4-Dehydropiperidino)methyl]-5,6-dihydro-5-oxo-11-H-indeno[1,2-c]isoquinoline]"
11,20,"CC(C)N1CCN(Cc2ccc3c(c2)Cc2c-3[nH]c(=O)c3ccccc23)CC1 [IIIb-1, 9-[1-(4-iso-Propylpiperazino)methyl]-5,6-dihydro-5-oxo-11-H-indeno[1,2-c]isoquinoline]"
12,25,"CCCCN1CCN(Cc2ccc3c(c2)Cc2c-3[nH]c(=O)c3ccccc23)CC1 [IIIb-2, 9-[1-(4-Butylpiperazino)methyl]-5,6-dihydro-5-oxo-11-H-indeno[1,2-c]isoquinoline]"
13,75,"O=c1[nH]c2c(c3ccccc13)Cc1cc(CN3CCN(c4ncccn4)CC3)ccc1-2 [IIIb-8, 9-{1-[4-(2-Pyrimidyl)piperazino]methyl}-5,6-dihydro-5-oxo-11-H-indeno[1,2-c]isoquinoline]"
14,20,"O=c1[nH]c2c(c3ccccc13)Cc1cc(CN3CCN(C4CCCC4)CC3)ccc1-2 [IIIb-9, 9-[1-(4-Cyclopentylpiperazino)methyl]-5,6-dihydro-5-oxo-11-H-indeno[1,2-c]isoquinoline dihydrochloride]"
15,75,"CCOCCN1CCN(Cc2ccc3c(c2)Cc2c-3[nH]c(=O)c3ccccc23)CC1 [IIIb-10, 9-{1-[4-(2-Ethoxyethyl)piperazino]methyl}-5,6-dihydro-5-oxo-11-H-indeno[1,2-c]isoquinoline]"
16,25,"CN1CCCN(Cc2ccc3c(c2)Cc2c-3[nH]c(=O)c3ccccc23)CC1 [IIIb-13, 9-[1-(4-Methylhomopiperazino)methyl]-5,6-dihydro-5-oxo-11-H-indeno[1,2-c]isoquinoline]"
17,75,"CC(C)(O)CN1CCN(Cc2ccc3c(c2)Cc2c-3[nH]c(=O)c3ccccc23)CC1 [IIIb-18, 9-[4-(2-Hydroxy-2-methyl-propyl-piperazino)methyl]-5,6-dihydro-5-oxo-11-H-indeno[1,2-c]isoquinoline dihydrochloride]"

row,EC50 [nM],SMILES
1,30,CN(CCN1CCOCC1)Cc1ccc2c(c1)Cc1c-2[nH]c(=O)c2ccccc12 [IIIb-19]
2,> 100,"O=c1[nH]c2c(c3ccccc13)Cc1cc(CN3CCCCCC3)ccc1-2 [IIIb-22, 9-(1-Homopiperidinomethyl)-5,6-dihydro-5-oxo-11-H-indeno[1,2-c]isoquinoline]"
3,> 60,"C[C@@H]1CN(Cc2ccc3c(c2)Cc2c-3[nH]c(=O)c3ccccc23)C[C@H](C)N1 [IIIb-24, 9-[1-(3,5-Dimethylpiperazino)methyl]-5,6-dihydro-5-oxo-11-H-indeno[1,2-c]isoquinoline]"
4,20,"C=CCN1CCN(Cc2cccc3c2Cc2c-3[nH]c(=O)c3ccccc23)CC1 [IIa-1, 10-[1-(4-Allylpiperazino)methyl]-5,6-dihydro-5-oxo-11-H-indeno[1,2-c]isoquinoline]"
5,30,"O=c1[nH]c2c(c3ccccc13)Cc1c(CN3CCC4(CC3)OCCO4)cccc1-2 [IIa-14, 10-[(4,4-Ethylenedioxy-piperidino)methyl]-5,6-dihydro-5-oxo-11-H-indeno[1,2-c]isoquinoline]"
6,< 10,"O=c1[nH]c2c(c3ccccc13)Cc1c(CNC3(CO)CCCC3)cccc1-2 [IIa-27, 10-{N-[1-(Hydroxymethyl)cyclopentyl]aminomethyl}-5,6-dihydro-5-oxo-11-H-indeno[1,2-c]isoquinoline]"
7,45,"C=CCN1CCN(Cc2ccc3c(c2)Cc2c-3[nH]c(=O)c3ccccc23)CC1 [IIb-1, 9-[1-(4-Allylpiperazino)methyl]-5,6-dihydro-5-oxo-11-H-indeno[1,2-c]isoquinoline]"
8,80,CCC(C)n1c2cc(CN3CCC4(CC3)OCCO4)ccc2c2[nH]c(=O)c3ccccc3c21 (centres unmarked) [IIb-23]
9,45,"N#CCCN1CCN(Cc2ccc3c(c2)Cc2c-3[nH]c(=O)c3ccccc23)CC1 [IIb-66, 9-{1-[4-(2-Cyanoethyl)piperazino]methyl}-5,6-dihydro-5-oxo-11-H-indeno[1,2-c]isoquinoline]"
10,> 60,"CC(C)(C)OC(=O)N1CCC(N(Cc2ccc3c(c2)Cc2c-3[nH]c(=O)c3ccccc23)C2CC2)CC1 [IIb-79, 9-{N-[4-(1-Boc-piperidyl)]-N-cyclopropylaminomethyl}-5,6-dihydro-5-oxo-11-H-indeno[1,2-c]isoquinoline]"
11,> 60,"CC(C)(C)OC(=O)N1CCC(NCc2ccc3c(c2)Cc2c-3[nH]c(=O)c3ccccc23)CC1 [IIb-92, 9-{N-[4-(1-Boc-piperidyl)]aminomethyl}-5,6-dihydro-5-oxo-11-H-indeno[1,2-c]isoquinoline]"
12,60,"CCC(=O)N1CCCN(Cc2ccc3c(c2)Cc2c-3[nH]c(=O)c3ccccc23)CC1 [IIb-118, 9-[(4-Propionyl-homopiperazino)methyl]-5,6-dihydro-5-oxo-11-H-indeno[1,2-c]isoquinoline hydrochloride]"
13,75,"O=C(CN1CCN(Cc2ccc3c(c2)Cc2c-3[nH]c(=O)c3ccccc23)CC1)N1CCCC1 [IIb-157, 9-{1-[4-(1-Pyrrolidinocarbonylmethyl)piperazino]methyl}-5,6-dihydro-5-oxo-11-H-indeno[1,2-c] isoquinoline]"
14,75,"O=C(C1CC1)N1CCN(Cc2ccc3c(c2)Cc2c-3[nH]c(=O)c3ccccc23)CC1 [IIb-170, 9-{1-[4-(Cyclopropylcarbonyl)piperazino]methyl}-5,6-dihydro-5-oxo-11-H-indeno[1,2-c]isoquinoline]"
15,75,"CCOC(CN1CCN(Cc2ccc3c(c2)Cc2c-3[nH]c(=O)c3ccccc23)CC1)OCC [IIb-196, 9-{1-[4-(2,2-Diethoxyethyl)piperazino]methyl}-5,6-dihydro-5-oxo-11-H-indeno[1,2-c]isoquinoline]"
16,55,"O=c1[nH]c2c(c3ccccc13)Cc1cc(CN3CCC(F)(F)CC3)ccc1-2 [Methylsulfonate salt of IIIb-15, 9-[1-(4,4-Difluoropiperidino)methyl]-5,6-dihydro-5-oxo-11-H-indeno[1,2-c]isoquinoline methylsulfonate]"
17,> 100,"O=c1[nH]c2c(c3cccc(Cl)c13)Cc1c(CNC3CCCC3)cccc1-2 [Va-1, 4-chloro-10-((cyclopentylamino)methyl)-6,11-dihydro-5H-indeno[1,2-c]isoquinolin-5-one]"

row,SMILES,EC50 [nM]
1,"CC(C)(C)OC(=O)N1CCN(Cc2ccc3c(c2)Cc2c-3[nH]c(=O)c3ccccc23)CC1 [IIIb-16, 9-[(4-tert-Butoxycarbonyl-piperazino)methyl]-5,6-dihydro-5-oxo-11-H-indeno[1,2-c]isoquinoline]",> 100
